pKd: −log10 of the molar value.
Experiments:
[1] = biological target: T1, LZK (leucine zipper-bearing kinase) (Homo sapiens, UniProt O43283); experiment: KdELECT KINOMEscan competition binding assay
T1 construct: gene MAP3K13
T1 sequence (O43283 1-966): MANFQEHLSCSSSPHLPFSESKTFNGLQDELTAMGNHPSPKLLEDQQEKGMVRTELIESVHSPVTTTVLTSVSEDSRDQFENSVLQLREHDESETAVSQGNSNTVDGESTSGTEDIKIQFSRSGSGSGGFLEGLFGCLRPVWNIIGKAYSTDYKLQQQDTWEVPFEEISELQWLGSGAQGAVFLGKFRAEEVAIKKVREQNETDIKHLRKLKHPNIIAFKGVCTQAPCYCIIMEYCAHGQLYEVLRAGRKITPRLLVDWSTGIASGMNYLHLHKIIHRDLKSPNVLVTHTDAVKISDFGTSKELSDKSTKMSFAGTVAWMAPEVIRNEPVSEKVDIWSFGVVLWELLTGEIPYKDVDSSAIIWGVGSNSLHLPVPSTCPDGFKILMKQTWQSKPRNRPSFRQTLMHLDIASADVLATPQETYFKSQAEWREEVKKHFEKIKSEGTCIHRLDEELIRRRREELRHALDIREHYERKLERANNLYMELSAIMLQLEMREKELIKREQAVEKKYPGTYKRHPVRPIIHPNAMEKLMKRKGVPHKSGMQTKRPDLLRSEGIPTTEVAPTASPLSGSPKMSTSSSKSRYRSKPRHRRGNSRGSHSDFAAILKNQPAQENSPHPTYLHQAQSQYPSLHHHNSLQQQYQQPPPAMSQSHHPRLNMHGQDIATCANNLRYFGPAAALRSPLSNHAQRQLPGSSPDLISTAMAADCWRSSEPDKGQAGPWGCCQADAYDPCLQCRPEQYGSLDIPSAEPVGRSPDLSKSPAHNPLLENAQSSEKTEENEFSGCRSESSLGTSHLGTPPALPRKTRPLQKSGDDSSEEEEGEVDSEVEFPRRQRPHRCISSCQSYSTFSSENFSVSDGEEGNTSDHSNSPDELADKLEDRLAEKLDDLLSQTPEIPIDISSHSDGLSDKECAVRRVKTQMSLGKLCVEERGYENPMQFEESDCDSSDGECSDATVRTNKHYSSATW

[2] = biological target: T1, LZK (leucine zipper-bearing kinase); experiment: LZK degradation Western blot in CAL33 cells with dox-induced LZK; format: cell-based

SMILES | pKd [1] | LZK degradation Western blot in CAL33 cells with dox-induced LZK [2]
Cc1ncsc1-c1ccc([C@H](C)NC(=O)[C@@H]2C[C@@H](O)CN2C(=O)[C@@H](NC(=O)CCCCCCC(=O)N2CCC(c3cc(Nc4cc(C#N)ccn4)nc(N4CCC(F)(F)C4)c3)CC2)C(C)(C)C)cc1 [PROTAC-21A] | 7.46 | 
N#Cc1ccnc(Nc2cc(C3CCN(C(=O)CCCCCCC(=O)NCCCCNC(=O)CNc4cccc5c4C(=O)N(C4CCC(=O)NC4=O)C5=O)CC3)cc(N3CCC(F)(F)C3)n2)c1 (stereo not shown) [PROTAC-21B] |  | PROTAC-21B, PROTAC-21C and PROTAC-21D (Figure 5B) also promoted degradation of LZK at higher concentrations
Cc1ncsc1-c1ccc([C@H](C)NC(=O)[C@@H]2C[C@@H](O)CN2C(=O)[C@@H](NC(=O)c2cncc(C(=O)N3CCC(c4cc(Nc5cc(C#N)ccn5)nc(N5CCC(F)(F)C5)c4)CC3)c2)C(C)(C)C)cc1 [PROTAC-21C] |  | PROTAC-21B, PROTAC-21C and PROTAC-21D (Figure 5B) also promoted degradation of LZK at higher concentrations
N#Cc1ccnc(Nc2cc(C3CCN(C(=O)c4cncc(C(=O)NCCCCNC(=O)CNc5cccc6c5C(=O)N(C5CCC(=O)NC5=O)C6=O)c4)CC3)cc(N3CCC(F)(F)C3)n2)c1 (stereo not shown) [PROTAC-21D] |  | PROTAC-21B, PROTAC-21C and PROTAC-21D (Figure 5B) also promoted degradation of LZK at higher concentrations

Reference: article doi:10.1101/2024.11.19.623840, “Targeting GOF p53 and c-MYC through LZK Inhibition or Degradation Suppresses Head and Neck Tumor Growth” (bioRxiv, 2024)
